Experimental data published in publication PMC6789174 (Drug Design, Development and Therapy, 2019).
Converted amounts (≈) assume the structure as drawn. Where two headings read alike, the source gives them in different places.

Columns and labels:
α-glucosidase = α-glucosidase (Saccharomyces cerevisiae, UniProt P53341); assay: Alpha glucosidase inhibition; type: biochemical
porcine α-amylase = target: T1, porcine α-amylase (Sus scrofa, UniProt P00690); assay: biochemical
T1 sequence (P00690 16-511): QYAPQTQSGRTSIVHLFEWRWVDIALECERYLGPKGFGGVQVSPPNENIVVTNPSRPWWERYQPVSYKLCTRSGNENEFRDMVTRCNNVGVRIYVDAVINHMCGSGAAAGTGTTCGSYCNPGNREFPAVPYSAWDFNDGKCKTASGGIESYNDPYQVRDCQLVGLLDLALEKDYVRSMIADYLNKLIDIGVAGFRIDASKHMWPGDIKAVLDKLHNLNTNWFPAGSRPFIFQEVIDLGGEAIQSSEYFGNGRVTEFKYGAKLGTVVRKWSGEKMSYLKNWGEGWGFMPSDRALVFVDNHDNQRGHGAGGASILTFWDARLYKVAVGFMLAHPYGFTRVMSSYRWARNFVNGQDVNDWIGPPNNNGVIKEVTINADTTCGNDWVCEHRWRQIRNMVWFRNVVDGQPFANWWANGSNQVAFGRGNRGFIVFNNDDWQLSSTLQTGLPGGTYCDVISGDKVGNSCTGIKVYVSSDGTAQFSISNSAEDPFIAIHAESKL

Proteus vulgaris = assay: Anti-bacterial activity, agar well diffusion; type: cell-based
[1] = tested on: Agrobacterium tumefaction; assay: Anti-bacterial activity, agar well diffusion; type: cell-based
Butyrylcholinesterase = Butyrylcholinesterase (Homo sapiens, UniProt P06276); assay: Anticholinesterase assay; type: biochemical
glucose-6-phosphatase = target: T2, glucose-6-phosphatase (Homo sapiens, UniProt P35575); assay: Glucose-6-phosphatase activity; type: biochemical; conditions: 33°C, pH 6.7, control 72.0
T2 sequence (P35575 1-357): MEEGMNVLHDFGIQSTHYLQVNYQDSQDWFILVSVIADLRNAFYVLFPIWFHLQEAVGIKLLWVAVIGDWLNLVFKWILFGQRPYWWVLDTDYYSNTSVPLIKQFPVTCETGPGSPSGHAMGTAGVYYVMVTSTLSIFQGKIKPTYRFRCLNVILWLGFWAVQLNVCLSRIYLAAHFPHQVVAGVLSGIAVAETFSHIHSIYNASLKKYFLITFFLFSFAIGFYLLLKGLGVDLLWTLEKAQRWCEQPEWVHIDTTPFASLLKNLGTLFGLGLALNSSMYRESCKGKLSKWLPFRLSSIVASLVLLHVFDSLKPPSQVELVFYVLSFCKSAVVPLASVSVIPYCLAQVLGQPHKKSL

Acetylcholinesterase = Acetylcholinesterase (Homo sapiens, UniProt P22303); assay: biochemical
[2] = ABTS free radical scavenging
[3] = DPPH free radical scavenging
Staphylococcus aureus = assay: Anti-bacterial activity, agar well diffusion; type: cell-based
[4] = read-out: %Inhibition (mean ± SEM), alpha amylase
[5] = read-out: ZI (Zone of inhibition), Proteus vulgaris
[6] = read-out: ZI (Zone of inhibition), Agrobacterium tumefaction
[7] = read-out: %BChE Inhibition (mean ± SEM)
[8] = read-out: %AChE Inhibition (mean ± SEM)
[9] = read-out: ZI (Zone of inhibition), Staphylococcus aureus

α-glucosidase, sequence (P53341 whole entry): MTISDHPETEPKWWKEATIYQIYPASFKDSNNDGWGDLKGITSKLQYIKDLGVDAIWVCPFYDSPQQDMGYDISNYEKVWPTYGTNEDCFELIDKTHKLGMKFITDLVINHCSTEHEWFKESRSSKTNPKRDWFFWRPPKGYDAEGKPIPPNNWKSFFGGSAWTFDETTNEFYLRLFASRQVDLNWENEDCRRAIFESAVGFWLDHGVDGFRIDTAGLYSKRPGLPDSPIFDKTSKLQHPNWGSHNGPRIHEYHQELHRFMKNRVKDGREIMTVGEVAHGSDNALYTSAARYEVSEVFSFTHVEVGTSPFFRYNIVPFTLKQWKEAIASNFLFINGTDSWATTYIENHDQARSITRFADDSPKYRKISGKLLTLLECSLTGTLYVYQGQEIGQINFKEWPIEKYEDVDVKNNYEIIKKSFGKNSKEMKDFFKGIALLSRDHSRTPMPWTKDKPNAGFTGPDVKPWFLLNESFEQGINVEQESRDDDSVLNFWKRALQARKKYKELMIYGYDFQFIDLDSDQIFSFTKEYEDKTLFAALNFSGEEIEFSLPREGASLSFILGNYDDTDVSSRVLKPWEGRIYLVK
Acetylcholinesterase, sequence (P22303 32-614, species assumed): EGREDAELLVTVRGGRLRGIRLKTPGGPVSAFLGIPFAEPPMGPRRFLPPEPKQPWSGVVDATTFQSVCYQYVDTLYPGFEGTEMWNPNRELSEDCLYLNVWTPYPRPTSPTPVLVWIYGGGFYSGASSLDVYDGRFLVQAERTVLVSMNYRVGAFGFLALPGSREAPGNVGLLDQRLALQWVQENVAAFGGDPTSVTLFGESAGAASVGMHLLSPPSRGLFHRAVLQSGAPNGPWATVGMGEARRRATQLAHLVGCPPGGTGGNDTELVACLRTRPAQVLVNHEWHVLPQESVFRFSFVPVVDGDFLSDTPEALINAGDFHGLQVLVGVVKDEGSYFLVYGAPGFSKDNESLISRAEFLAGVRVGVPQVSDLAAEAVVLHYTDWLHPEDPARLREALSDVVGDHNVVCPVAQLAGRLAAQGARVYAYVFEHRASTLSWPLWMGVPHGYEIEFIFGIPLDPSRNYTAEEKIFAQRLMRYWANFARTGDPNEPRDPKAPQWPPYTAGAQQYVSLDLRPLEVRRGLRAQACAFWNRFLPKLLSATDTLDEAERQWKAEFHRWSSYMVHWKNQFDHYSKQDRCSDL
Butyrylcholinesterase, sequence (P06276 29-602): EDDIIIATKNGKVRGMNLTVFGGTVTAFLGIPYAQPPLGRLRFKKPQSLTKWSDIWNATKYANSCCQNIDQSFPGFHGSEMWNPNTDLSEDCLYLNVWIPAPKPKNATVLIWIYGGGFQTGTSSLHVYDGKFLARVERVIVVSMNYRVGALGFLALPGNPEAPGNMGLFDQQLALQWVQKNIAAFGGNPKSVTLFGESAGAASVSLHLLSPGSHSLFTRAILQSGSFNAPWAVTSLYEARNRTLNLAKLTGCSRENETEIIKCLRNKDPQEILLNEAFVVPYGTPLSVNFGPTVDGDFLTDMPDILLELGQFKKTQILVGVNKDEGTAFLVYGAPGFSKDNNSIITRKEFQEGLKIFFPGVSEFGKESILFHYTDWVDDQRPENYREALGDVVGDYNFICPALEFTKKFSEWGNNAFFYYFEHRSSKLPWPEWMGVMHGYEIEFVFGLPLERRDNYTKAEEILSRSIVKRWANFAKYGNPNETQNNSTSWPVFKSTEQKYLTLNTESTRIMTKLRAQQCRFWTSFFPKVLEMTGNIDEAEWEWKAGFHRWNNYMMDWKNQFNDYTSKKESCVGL

In the case of `C[C@H]1O[C@H](O[C@H]2[C@H](O)[C@@H](O)[C@@H](O[C@H]3[C@H](O)[C@@H](O)C(O)O[C@@H]3CO)O[C@@H]2CO)[C@H](O)[C@@H](O)[C@@H]1N[C@H]1C=C(CO)[C@@H](O)[C@H](O)[C@H]1O` (stereo partly shown) [Acarbose], the “%Inhibition (mean ± SEM), alpha glucosidase” value (“%Inhibition (mean ± SEM)” for short) (α-glucosidase) is reported as 94.02 ± 1.23%, the “%Inhibition (mean ± SEM)” value (α-glucosidase; concentration 125 μg/mL) is reported as 59.83 ± 2.04% and the “%Inhibition (mean ± SEM)” value (α-glucosidase; concentration 250 μg/mL) is reported as 68.14 ± 2.18%. The “%Inhibition (mean ± SEM)” value (α-glucosidase; concentration 500 μg/mL) was 79.11 ± 2.12%, the inhibition at 125 µg/mL (porcine α-amylase; [4]) was 58.1 ± 1.34% and the inhibition at 500 µg/mL (porcine α-amylase; [4]) was 73 ± 1.34%. It also gave an inhibition at 1000 µg/mL (porcine α-amylase; [4]) of 88.1 ± 1.13%.

`Cc1ccc(NC(=S)Nc2ccccc2)c(C)c1` [Compound IV, 1-(2,4-dimethylphenyl)-3-phenylthiourea] gave an MIC (Proteus vulgaris; read-out: MIC, Proteus vulgaris) of 11.9 µg/mL (≈ 46.5 µM), a zone of inhibition at 10 µg/mL (Proteus vulgaris; [5]) of 14 mm and a zone of inhibition at 20 µg/mL (Proteus vulgaris; [5]) of 18 mm. For the same compound, the zone of inhibition at 30 µg/mL (Proteus vulgaris; [5]) was 23 mm, the MIC ([1]; read-out: MIC, Agrobacterium tumefaction) was 13.5 µg/mL (≈ 52.6 µM) and the zone of inhibition at 10 µg/mL [1, 6] was 14 mm. It also gave a zone of inhibition at 20 µg/mL [1, 6] of 18 mm, a zone of inhibition at 30 µg/mL [1, 6] of 23 mm and an IC50 (Butyrylcholinesterase) of 585 µM. The inhibition at 125 µg/mL (Butyrylcholinesterase; [7]) was 49.8 ± 1.53%, the inhibition at 250 µg/mL (Butyrylcholinesterase; [7]) was 53.5 ± 1.07% and the inhibition at 500 µg/mL (Butyrylcholinesterase; [7]) was 60.5 ± 1.61%. For the same compound, the inhibition at 1000 µg/mL (Butyrylcholinesterase; [7]) was 76.1 ± 1.9%, the “%Inhibition (mean ± SEM)” value (α-glucosidase; concentration 250 μg/mL) was 55.88 ± 2.04% and the “Total Activity of glucose-6-phosphatase” value (glucose-6-phosphatase; concentration 125 µg/mL) was 17.70 mg of P released per hour. The “Total Activity of glucose-6-phosphatase” value (glucose-6-phosphatase; concentration 250 µg/mL) was 13.58 mg of P released per hour, the “Total Activity of glucose-6-phosphatase” value (glucose-6-phosphatase; concentration 500 µg/mL) was 11.77 mg of P released per hour and the IC50 (Acetylcholinesterase) was 1960 µM. For the same compound, the inhibition at 125 µg/mL (Acetylcholinesterase; [8]) was 42 ± 1.01%, the inhibition at 250 µg/mL (Acetylcholinesterase; [8]) was 45.1 ± 1.83% and the inhibition at 500 µg/mL (Acetylcholinesterase; [8]) was 50 ± 1.88%. For the same compound, the inhibition at 1000 µg/mL (Acetylcholinesterase; [8]) was 64 ± 1.7%, the “ABTS IC50” value [2] was 100 µg/mL and the “ABTS radical scavenging, in words” value [2] was “moderately effective”. The “ABTS % I (mean ± S.E.M)” value ([2]; concentration 125 μg/mL) was 64.81 ± 1.05%, the “ABTS % I (mean ± S.E.M)” value ([2]; concentration 250 μg/mL) was 70.13± 0.05% and the “ABTS % I (mean ± S.E.M)” value ([2]; concentration 500 μg/mL) was 74.99 ± 1.51%. The “ABTS % I (mean ± S.E.M)” value ([2]; concentration 1000 μg/mL) was 78.15 ± 1.21%, the IC50 (porcine α-amylase) was 242 µM and the inhibition at 125 µg/mL (porcine α-amylase; read-out: %Inhibition (mean ± SEM), alpha amylase, concentration 125 µg/mL) was 69 ± 1.19%. For the same compound, the inhibition at 250 µg/mL (porcine α-amylase; read-out: %Inhibition (mean ± SEM), alpha amylase, concentration 250 µg/mL) was 75.63 ± 0.63%, the inhibition at 500 µg/mL (porcine α-amylase; read-out: %Inhibition (mean ± SEM), alpha amylase, concentration 500 µg/mL) was 79.2 ± 1.09% and the inhibition at 1000 µg/mL (porcine α-amylase; read-out: %Inhibition (mean ± SEM), alpha amylase, concentration 1000 µg/mL) was 80.1 ± 2.02%. The “DPPH IC50” value [3] was 64 µg/mL, the “DPPH % I (mean ± S.E.M)” value ([3]; concentration 125 μg/mL) was 66.15 ± 1.70% and the “DPPH % I (mean ± S.E.M)” value ([3]; concentration 250 μg/mL) was 69.31 ± 2.11%. The “DPPH % I (mean ± S.E.M)” value ([3]; concentration 500 μg/mL) was 74.13 ± 1.51%, the “DPPH % I (mean ± S.E.M)” value ([3]; concentration 1000 μg/mL) was 79.15 ± 1.23% and the MIC (Staphylococcus aureus; read-out: MIC, Staphylococcus aureus) was 4.03 µg/mL (≈ 15.7 µM). It also gave a zone of inhibition at 10 µg/mL (Staphylococcus aureus; [9]) of 21 mm, a zone of inhibition at 20 µg/mL (Staphylococcus aureus; [9]) of 23 mm and a zone of inhibition at 30 µg/mL (Staphylococcus aureus; [9]) of 26 mm.
